Measurements taken from patent publication US5026910A, “Polyfluoroalkyl nitrogen compounds, processes for their preparation and their use” (Societe Atochem, priority 1989, dated 1991).

What was measured:
[1] = interfacial tension of aqueous solution (0.1%) relative to cyclohexane; type: physicochemical; settings: 25° C.; for γi (interfacial tension relative to cyclohexane): Table 6, aqueous solution at a concentration of 0.1%
Method: (§1) The surface tension of an aqueous solution containing 0.1% of this salt is 19.2 mN m^-1 at 25° C. The interfacial tension of an aqueous solution containing 0.1% of this salt, in equilibrium with cyclohexane, is 5.8 mN m^-1 at 25° C.
(§2) The surface tension of an aqueous solution containing 0.1% of this salt is 15.5 mN m^-1 at 25° C. The interfacial tension of an aqueous solution containing 0.1% of this salt, in equilibrium with cyclohexane, is 6.4 mN m.-1 at 25° C.
(§3) The surface tension Ys and interfacial tension Yi (relative to cyclohexane)of the ammonium salt in question, which are measured at 25° C. in aqueous solution at a concentration of 0.1%, are shown in the fourth and fifth columns of Table 6, the third column showing the yield.
(§4) The surface tension of an aqueous solution containing 0.1% of this salt is 15.5 mN m^-1 at 25° C. The interfacial tension in relation to cyclohexane in the same conditions is 5.5 mN m^-1 .
(§5) By proceeding in the same manner starting with 1,3-dibromopropane, the double quaternary salt of formula: [drawing 24] is obtained in a 98% yield. The surface tension of an aqueous solution containing 0.1% of this salt is 16.4 mN m^-1 at 25° C. The interfacial tension relative to cyclohexane in the same conditions is 7.7 mN m^1.

[2] = surface tension of aqueous solution (0.1%); type: physicochemical; settings: for surface tension: aqueous solution containing 0.1%; for γs (surface tension): aqueous solution at a concentration of 0.1%
Method: as §1, §2
This yields the corresponding quaternary salts of formula: [drawing 19] which are colorless or slightly orange-colored pastes. These salts are completely water-soluble. Their yield and the surface tension at 25° C. of an aqueous solution at a concentration of 0.1% are shown in the second and third columns of Table 5.
as §3, §4, §5
The surface tension of an aqueous solution containing 0.1% of this N-oxide at 25° C. is 16.3 mN m^-1
The surface tension of an aqueous solution containing 1 0.1% of this betaine is 16.2 mN m^-1.

[3] = aqueous solution containing 0.1%, cyclohexane

Row | Compound | γi (interfacial tension relative to cyclohexane) ([1]; cyclohexane) [mN m^-1] | γs (surface tension) ([2]; Table 6, 25° C.) [mN m^-1] | other results
1 | C[N+](C)(C)CCNC(=S)NCCC(F)(F)C(F)(F)C(F)(F)C(F)(F)C(F)(F)C(F)(F)F |  |  | interfacial tension in equilibrium with / relative to cyclohexane [1, 3]: 5.8 mN m^-1; surface tension ([2]; 25° C.): 19.2 mN m^-1
2 | C[N+](C)(CCO)CCNC(=S)NCCC(F)(F)C(F)(F)C(F)(F)C(F)(F)C(F)(F)C(F)(F)F [HOC2 H4Br] |  |  | γs (surface tension) ([2]; Table 5, 25° C.): 15.4 mN m^-1
3 | CCCCCCCCCCCC[N+](C)(C)CCNC(=S)NCCC(F)(F)C(F)(F)C(F)(F)C(F)(F)F [C4 F9 / C12 H25] | 1.9 | 23.1 | 
4 | C[N+](C)(CCC[N+](C)(C)CCNC(=S)NCCC(F)(F)C(F)(F)C(F)(F)C(F)(F)C(F)(F)C(F)(F)F)CCNC(=S)NCCC(F)(F)C(F)(F)C(F)(F)C(F)(F)C(F)(F)C(F)(F)F |  |  | interfacial tension relative to cyclohexane ([1]; in the same conditions: aqueous solution containing 0.1%): 7.7 mN m^1; surface tension ([2]; 25° C.): 16.4 mN m^-1
5 | C[N+](C)(CCNC(=S)NCCC(F)(F)C(F)(F)C(F)(F)C(F)(F)C(F)(F)C(F)(F)F)CC[N+](C)(C)CCNC(=S)NCCC(F)(F)C(F)(F)C(F)(F)C(F)(F)C(F)(F)C(F)(F)F |  |  | interfacial tension in equilibrium with / relative to cyclohexane [1, 3]: 5.5 mN m^-1; surface tension ([2]; 25° C.): 15.5 mN m^-1
6 | C[N+](C)(C)CCNC(=S)NCCC(F)(F)C(F)(F)C(F)(F)C(F)(F)C(F)(F)C(F)(F)C(F)(F)C(F)(F)F |  |  | interfacial tension in equilibrium with cyclohexane [1, 3]: 6.4 mN m.-1; surface tension ([2]; 25° C.): 15.5 mN m^-1
7 | CCCCCCCC[N+](C)(C)CCNC(=S)NCCC(F)(F)C(F)(F)C(F)(F)C(F)(F)C(F)(F)C(F)(F)F [C6 F13 / C8 H17] | 1.4 | 15.9 | 
8 | CCCCCCCCCCCCCCCC[N+](C)(C)CCNC(=S)NCCC(F)(F)C(F)(F)C(F)(F)C(F)(F)C(F)(F)C(F)(F)F [C6 F13 / C16 H33] | 0.7 | 20.3 | 
9 | CCCCCCCCCCCC[N+](C)(C)CCNC(=S)NCCC(F)(F)C(F)(F)C(F)(F)C(F)(F)C(F)(F)C(F)(F)C(F)(F)C(F)(F)F [C8 F17 / C12 H25] | 2.2 | 15.2 | 
10 | CCCCCCCC[N+](C)(C)CCNC(=S)NCCC(F)(F)C(F)(F)C(F)(F)C(F)(F)C(F)(F)C(F)(F)C(F)(F)C(F)(F)F [C8 F17 / C8 H17] | 3.2 | 15.9 | 
11 | CCCCCCCC[N+](C)(C)CCNC(=S)NCCC(F)(F)C(F)(F)C(F)(F)C(F)(F)F [C4 F9 / C8 H17] | 0.7 | 19.7 | 
12 | C[N+](C)(CCNC(=S)NCCC(F)(F)C(F)(F)C(F)(F)C(F)(F)C(F)(F)C(F)(F)F)CC(=O)[O-] |  |  | surface tension ([2]; temperature not given): 16.2 mN m^-1
13 | C[N+](C)([O-])CCNC(=S)NCCC(F)(F)C(F)(F)C(F)(F)C(F)(F)C(F)(F)C(F)(F)F |  |  | surface tension ([2]; 25° C.): 16.3 mN m^-1
14 | CCCCCCCCCCCCCCCC[N+](C)(C)CCNC(=S)NCCC(F)(F)C(F)(F)C(F)(F)C(F)(F)F [C4 F9 / C16 H33] | 2.1 | 26.8 | 
15 | C[N+](C)(CCNC(=S)NCCC(F)(F)C(F)(F)C(F)(F)C(F)(F)C(F)(F)C(F)(F)F)Cc1ccccc1 |  |  | γs (surface tension) ([2]; Table 5, 25° C.): 17.4 mN m^-1
16 | C=CC[N+](C)(C)CCNC(=S)NCCC(F)(F)C(F)(F)C(F)(F)C(F)(F)C(F)(F)C(F)(F)F [CH2CHCH2Br] |  |  | γs (surface tension) ([2]; Table 5, 25° C.): 16.4 mN m^-1
17 | CCCCCCCCCCCC[N+](C)(C)CCNC(=S)NCCC(F)(F)C(F)(F)C(F)(F)C(F)(F)C(F)(F)C(F)(F)F [C6 F13 / C12 H25] | 0.8 | 17.5 | 
18 | CCCCC[N+](C)(C)CCNC(=S)NCCC(F)(F)C(F)(F)C(F)(F)C(F)(F)C(F)(F)C(F)(F)C(F)(F)C(F)(F)F [C8 F17 / C5 H11] | 2 | 16 | 
